Laboratory results published in patent US20210198259A1, “HETEROCYCLIC DERIVATIVES AND USE THEREOF” (C&C RESEARCH LABORATORIES, priority 2018, published 2021).

Tests used:
ICR mice = test: Histamine-induced itching model in ICR mice; format: in vivo, mouse; details: 50 mg/kg oral, scratches counted for 20 minutes
Method: Female, ICR mice (8 weeks old) were purchased from OrientBio Co., Ltd. The animals were housed under conditions of controlled temperature (23±3° C.), humidity (50±5%) and lighting with food and water available ad libitum. Water and food were stopped 1 hour before the experiment.
For easy intradermal injection of pruritogen (histamine, dissolved in saline injection solution to make the concentration of 300 nmol per 40 μL) the hair was clipped using clippers (8000AD, THRIVE) over the rostral part of the back 24 hours before the experiment under inhalation anesthesia with isoflurane. Mice (n=10 per group) were divided into 5 groups (normal group, control group and 3 experimental groups). […] At the end of the filming, the number of scratches of the test animals was counted during 20 minutes after histamine administration using the recorded video. The number of scratches was counted a series of actions from scratching with the rear foot of the animal to the time of taking the rear foot to the mouth as one time (J. Allergy Clin. Immunol. 2007, 19(1), 176-183). All data were analyzed by using Excel and Prism, and the number of scratching of each group is expressed as the mean±S.E.M. The inhibitory effect of compounds is shown as a percentage of the maximal response to histamine (100% control group). Statistical analysis was analyzed using one-way ANOVA with Dunnett test. […]

[1] = Test for pharmacokinetics in ICR mice (oral); format: in vivo; details: 50 mg/kg, ICR mouse, 5 mg/mL solution at 10 mL/kg, plasma
Method: As the administration solution for mice of the compounds prepared in the above
Examples, the compound of Example 55 of International Publication No. WO 2010/030785 and the compound of Example 4 of International Publication No. WO 2013/048214, 20% hydroxypropyl-β-cyclodextrin solution (99.75%) and 2N HCl (0.25%) were added sequentially to make 5 mg/mL. Provided that in the case of the compound of Example 10, 99.5% of 20% hydroxypropyl-β-cyclodextrin solution and 0.5% of 2N HCl […] were added.
The weight of each ICR mouse was properly 20-30 g. Dosage of the compound of the present invention was 10 mL/kg, and administered orally using Zonde. Blood collection was performed at 0.5, 1, 2, 4, 7 and 24 hours by orbital venous blood collection using a capillary tube coated with an anticoagulant, and then plasma was isolated using a centrifuge and kept in a freezer.
Plasma collected from animals and standard concentration material were pre-treated using solid-phase extraction, and concentration of the compound of the invention was determined using a liquid chromatography mass spectrometer (Agilent HPLC, API-4000 Qtrap). According to the resulting concentration value, the pharmacokinetics parameter was found using WinNonlin (Version 7.0) and half-life (t1/2), maximum blood concentration (Cmax) and area under the curve (AUCall) are represented in Table 2.

[2] = molecular target: T1, human histamine 4 receptor (hH4R) (Homo sapiens, UniProt Q9H3N8); test: Binding affinity of human histamine 4 receptor (hH4R), [3H] histamine displacement; details: [3H] labeled histamine, hH4R-overexpressed cell membrane
T1 construct: purchased Multispan
Method: The compounds prepared in the above Examples, the compound of Example 55 of International Publication No. WO 2010/030785 and the compound of Example 4 of International Publication No. WO 2013/048214 were diluted by 1,000 fold (v/w) with DMSO, and then 1 mL of the diluted compound solution was mixed with 99 mL of the analysis buffer solution (50 mM tris-HCl pH 7.4, 5 mM EDTA) to obtain concentration of 1 μM. […] of the prepared compound solution was transferred to each well of a 96-well plate, and then 20 mL of 100 μM histamine diluted with analysis buffer solution and 1% DMSO were transferred to each well to calculate non-specific binding and total binding degree. 15 μg of human histamine 4 receptor-overexpressed cell membrane (Multispan) was diluted into […] of analysis buffer solution and that was transferred to each well. [^3H] labeled histamine (PerkinElmer) was diluted into 10 nM concentration, 20 mL was allocated in each well, and then it was kept in a 27° C. incubator for 30 minutes. After the reaction, 100 mL of the mixture was transferred to a glass fiber plate in which 0.5% polyethylene amine was pre-soaked, and then non-binding [^3H] labeled histamine was removed in vacuum. After 6 times washing with 200 mL of washing buffer solution (50 mM tris-HCl, pH 7.4), the plate was dried in a 37° C. oven for 18 hours. […] of betaScint cocktail solution was added to each well, and after 10 minutes CPM (count per minute) value of [^3H] labeled histamine was measured by the use of Micro beta2™. The binding affinity (% inhibition) of the human histamine 4 receptor for the compounds of the present invention was analyzed by an Excel program, and the results of analysis are represented in Table 1.

- AUC [1]: 30500 ng·h/mL
- Cmax [1]: 2500 ng/mL
- Human histamine 4 receptor (hH4R) binding affinity (% inhibition at 1 μM) [2]: 95.8%
SMILES: CNC1CN(C2=Nc3ccc(Br)cc3N3CC(=O)N=C23)C1 [Example 13, 8-bromo-4-(3-(methylamino)azetidin-1-yl)imidazo[1,2-a]quinoxalin-2(1H)-one]
- Inhibitory rate (%) After 30 minutes (ICR mice; histamine given 30 minutes after dosing): 131%
- Inhibitory rate (%) After 7 hours (ICR mice; histamine given 7 hours after dosing): 99.0%
